Measurements reported in US4104390A, “Thieno [2,3-c] and [3,2-c] pyridines” (Parcor, priority 1976, dated 1978).
Like-named read-outs stand apart in the source and are kept apart here.

Tests used:
[1] = LD50, intravenous route, mice; details: mouse, in vivo
[2] = tested on: A.D.P.-induced blood-platelet aggregation; test: A.D.P.-induced blood-platelet aggregation; assay type: in vivo, Wistar rats; details: Rattus norvegicus, po; rats, 100 mg/kg orally, 3 hours after treatment, 10 μM A.D.P. solution, with respect to control group; read-out: Percent inhibition of blood-platelet aggregation, A.D.P.
Method: (§1) Blood is taken from the jugular vein of Wistar rats. From this citrated blood, and after centrifugation, is reconstituted a plasma containing 600,000 ± 20,000 blood-platelets per ml which is used in all aggregation determinations.
(§2) 0.4 ml plasma is placed in a siliconized tube provided with a magnet bar, also siliconized. The tube is introduced into an aggregometer coupled with an apparatus for recording optical density variations. When light transmission has reached a stable value, 0.5 ml of a solution containing 10 μM A.D.P. (Adenosine-Di-Phosphate) is introduced into the tube.
(§3) Blood-platelet aggregation causes an increase of light transmission followed by a decrease subsequent to the deaggregation phase.
(§4) The maximal optical density variation thus determined characterizes the intensity of the aggregation.
(§5) Different groups of 20 rats are used, each group being orally administered a test derivative at a dosage of 100 mg/kg.

[3] = tested on: collagen-induced blood-platelet aggregation; test: Collagen-induced blood-platelet aggregation; assay type: in vivo, Wistar rats; details: Rattus norvegicus, po; rats, 100 mg/kg orally, 3 hours after treatment, collagen (bovine tendon extract), with respect to control group; read-out: Percent inhibition of blood-platelet aggregation, Collagen
Method: as §1, §2, §3, §4
The A.D.P. solution is substituted with a collagen solution (bovine tendon extract).
as §5

[4] = tested on: carrageenin-induced localized edema; test: Carrageenin-induced localized edema method; assay type: in vivo; details: Rattus norvegicus, po, rats, 100 mg/kg orally at -1, 0, 1 and 2.5 hours
Method: (a) Carrageenin-induced localized edema method
0.1 ml of a 1% carrageenin solution is injected in the metatarsal flexor muscles of the right hind limb of rats at time 0. The animals of the treated group are additionally orally administered 100 mg/kg of the test derivative, respectively one hour prior to injection of the phlogogenic agent, simultaneously with said injection, and then 1 hour and 2.5 hours thereafter. The determinations effected by means of a ROCH micrometer at times 0, 1 hour, 2 hours, 3 hours and 5 hours after carrageenin administration make it possible to determine, as a function of time, the percent anti-inflammatory activity with respect to the reference group.

[5] = tested on: ovalbumen-induced systemic edema; test: Ovalbumen-induced systemic edema method; assay type: in vivo; details: Rattus norvegicus, po, rats, 100 mg/kg orally 1 hour before and with ovalbumen
Method: (b) Ovalbumen-induced systemic edema method
Simultaneous injection of 1 ml ovalbumen and 0.5 ml of a 1% aqueous Evans Blue solution is effected in rats. On the other hand, the animals of the treated group are administered orally 100 mg/kg of the test derivative one hour prior to ovalbumen administration and simultaneously with said administration. The intensity of the phenomenon thus induced is scored according to a scale from 1 to 5 depending on the progress of the inflammatory syndrome. The mean intensity of the edem and the percent decrease of the edema reaction with respect to the control group are thus determined as a function of time.

[6] = 1 hour after carrageenin, read-out: Percent anti-inflammatory activity after 1 hour
[7] = 2 hours after carrageenin, read-out: Percent anti-inflammatory activity after 2 hours
[8] = 3 hours after carrageenin, read-out: Percent anti-inflammatory activity after 3 hours
[9] = 5 hours after carrageenin, read-out: Percent anti-inflammatory activity after 5 hours
[10] = 2 hours after ovalbumen, read-out: Percent anti-inflammatory activity after 2 hours
[11] = 3 hours after ovalbumen, read-out: Percent anti-inflammatory activity after 3 hours

SMILES | LD50 at 24 h [1] [mg/kg] | inhibition at 100 mg/kg [2] [%] | inhibition at 100 mg/kg [3] [%] | inhibition in vivo at 100 mg/kg [4, 6] [%] | inhibition in vivo at 100 mg/kg [4, 7] [%] | inhibition in vivo at 100 mg/kg [4, 8] [%] | inhibition in vivo at 100 mg/kg [4, 9] [%] | inhibition in vivo at 100 mg/kg [5, 10] [%] | inhibition in vivo at 100 mg/kg [5, 11] [%]
CC1NCc2sccc2C1c1ccccc1 (centres unmarked) [derivative n°1, 5-Methyl-4-phenyl-4,5,6,7-tetrahydro-thieno[2,3-c]pyridine] | 63 | 64.9 | 96.2 | 37 | 43 | 45 | 47 | 47 | 54
c1ccc(C2CNCc3sccc32)cc1 (centres unmarked) [derivative n°3, 4-Phenyl-4,5,6,7-tetrahydro-thieno[2,3-c]pyridine] | 69 | 64.1 | 95.6 | 41 | 46 | 50 | 51 | 52 | 59
CN1Cc2sccc2C(c2ccccc2)C1 (centres unmarked) [derivative n°5, 6-Methyl-4-phenyl-4,5,6,7-tetrahydro-thieno[2,3-c]pyridine] | 61 | 63.6 | 93.8 | 37 | 45 | 50 | 51 | 44 | 51
Clc1ccccc1CN1Cc2ccsc2C(c2ccccc2)C1 (centres unmarked) [derivative n°19, 5-o.Chlorobenzyl-7-phenyl-4,5,6,7-tetrahydro-thieno[3,2-c]pyridine] | – | 62.3 | 93.7 | 47 | 53 | 54 | 56 | 49 | 57
c1ccc(CCN2Cc3ccsc3C(c3ccccc3)C2)cc1 (centres unmarked) [derivative n°20, 5-Phenethyl-7-phenyl-4,5,6,7-tetrahydro-thieno[3,2-c]pyridine] | – | 63.6 | 94.2 | 43 | 48 | 52 | 55 | 53 | 61
CCCCN1Cc2ccsc2C(c2ccccc2)C1 (centres unmarked) [derivative n°21, 5-Butyl-7-phenyl-4,5,6,7-tetrahydro-thieno[3,2-c]pyridine] | – | 62.2 | 94 | 38 | 44 | 46 | 49 | 51 | 57
CC1C(c2ccccc2)c2sccc2CN1Cc1ccc([N+](=O)[O-])cc1 (centres unmarked) [derivative n°22, 6-Methyl-5-p.nitrobenzyl-7-phenyl-4,5,6,7-tetrahydro-thieno[3,2-c]pyridine] | – | 63.4 | 94.6 | 41 | 49 | 53 | 56 | 50 | 57
CC1C(c2ccccc2)c2sccc2CN1Cc1ccccc1Cl (centres unmarked) [derivative n°23, 5-o.Chlorobenzyl-6-methyl-7-phenyl-4,5,6,7-tetrahydro-thieno[3,2-c]pyridine] | – | 64.8 | 94.5 | 39 | 44 | 48 | 52 | 47 | 54
c1ccc(CN2Cc3ccsc3C(c3ccccc3)C2)cc1 (centres unmarked) [derivative n°24, 5-Benzyl-7-phenyl-4,5,6,7-tetrahydro-thieno[3,2-c]pyridine] | – | 62.6 | 93 | 41 | 47 | 50 | 53 | 42 | 47
c1ccc(CCN2Cc3sccc3C(c3ccccc3)C2)cc1 (centres unmarked) [derivative n°25, 6-Phenethyl-4-phenyl-4,5,6,7-tetrahydro-thieno[2,3-c]pyridine] | – | 64.1 | 93.8 | 47 | 52 | 56 | 60 | 44 | 51
N#Cc1ccccc1CN1Cc2ccsc2C(c2ccccc2)C1 (centres unmarked) [derivative n°26] | – | 60.9 | 90.2 | 44 | 49 | 52 | 56 | 48 | 54
COc1ccc(CN2Cc3ccsc3C(c3ccccc3)C2)cc1 (centres unmarked) [derivative n°27, 5-p.Methoxybenzyl-7-phenyl-4,5,6,7-tetrahydro-thieno[3,2-c]pyridine] | – | 63 | 92.4 | 38 | 45 | 49 | 52 | 51 | 56
COC(=O)c1ccccc1CN1Cc2ccsc2C(c2ccccc2)C1 (centres unmarked) [derivative n°28, 5-o.Methoxycarbonylbenzyl-7-phenyl-4,5,6,7-tetrahydro-thieno[3,2-c]pyridine] | – | 62.3 | 92.2 | 41 | 47 | 51 | 53 | 45 | 52
